These results are taken from paper PMC5995442, “Drug discovery with an RBM20 dependent titin splice reporter identifies cardenolides as lead structures to improve cardiac filling” (PLoS ONE, 2018).

One may read the viability as a per cent measure of how many cells are alive, often set against a control.

Entries after “also recorded” stand apart in the source; their conditions may differ. Where two headings read alike, the source gives them in different places. Some results are limits rather than exact numbers.

In data set [1] the test system is HEK293.EBNA cells. Nature of the data set: Cell viability, resazurin based staining (PrestoBlue). Also on record: species or system human. Particulars: for IC50: Homo sapiens, HEK293-EBNA. From the text:
(§1) Cells transfected were at a confluency of 50-60%.
(Alamar Blue is a resazurin reagent that responds to reducing activity.)

The subject of data set [2] is RBM20 dependent titin PEVK4-13 splicing reporter. As to the kind of experiment: Dual luciferase splicing reporter assay (DLR assay), RBM20 co-transfected. It counts as cell-based, human. Particulars: for IC50: Homo sapiens.
Description: (§2) The objective of our study was to identify and evaluate small molecules with the potential to modulate alternative splicing via an unbiased chemical high-throughput screening approach. Using transient transfection of a dual luciferase splicing reporter assay (DLR-assay) in HEK293.EBNA cells and a RBM20 expression construct, we investigated >34.000 substances for their effect on alternative exon exclusion from our RBM20 dependent titin PEVK4-13 splicing reporter. For the primary screen (pilot screen), each compound was tested at 10 μM (single point) and compared to an untreated control. Positive hits leading to differential exon usage (exceeding three standard deviations) were picked for independent validation in 9 serial 2-fold dilutions starting at 20 μM. Compounds that produced a concentration dependent effect were validated manually in the 96-well format and cytotoxicity was evaluated. To minimize the detection of false positives, we excluded compounds with structural homology to each luciferase’s natural substrate. To determine the EC50 of candidates we calculated dose response curves using a non-linear least-squares fitting routine available within the GNUPLOT package (accessible online: http://ic50.tk/index.html). […] Compounds that produced a concentration depend effect in the DLR-assay and altered the alternative transcript levels were regarded as validated alternative splicing modulators.
as §1
(§3) 5000 HEK293.EBNA cells were seeded in clear bottom, white 384-well plates (Corning by Sigma-Aldrich Chemie GmbH, Munich, Germany) using an automated cell dispenser (Biotek, Bad Friedrichshall, Germany). 24 h after cell seeding the expression plasmids were delivered using a Freedom EVO® robotic workstation (TECAN, Maennedorf, Switzerland) equipped with a MultiChannel Arm™. Cells were transiently transfected with 45 ng plasmid DNA ([…] and 40 ng RBM20 or 24 ng of the negative control pcDNA3.1 ad 45 ng with bacterial expression plasmid pBSSK). Compounds were added to the plates the following day using the same robotic platform. Luciferase activity was determined using Dual-Glo® Luciferase Assay System (Promega GmbH, Mannheim, Germany) on an Infinite® M1000 Pro (TECAN, Maennedorf, Switzerland) plate reader around 60 hours post-transfection. Assay robustness was evaluated by calculation z’ scores using an online tool provided by the Screening Unit at FMP Berlin (http://www.screeningunit-fmp.net/tools/z-prime.php).
In general terms: In a reporter assay the amount or activity of a reporter protein is the signal.

Assay in data set [3]: as above
Format: cell-based, human. To be noted: human; RBM20 titin reporter, N = 3; read-out: cell viability below which the splice reporter readout is affected.
Description: as §2, §1, §3

For data set [4], the system named is titin minigene TTN Ex241-43 transcripts. Nature of the data set: RT-PCR / RT-qPCR of transcripts from titin minigene TTN Ex241-43 (I96-98). It counts as cell-based, human. From the text:
The objective of our study was to identify and evaluate small molecules with the potential to modulate alternative splicing via an unbiased chemical high-throughput screening approach. Using transient transfection of a dual luciferase splicing reporter assay (DLR-assay) in HEK293.EBNA cells and a RBM20 expression construct, we investigated >34.000 substances for their effect on alternative exon exclusion from our RBM20 dependent titin PEVK4-13 splicing reporter. For the primary screen (pilot screen), each compound was tested at 10 μM (single point) and compared to an untreated control. Positive hits leading to differential exon usage (exceeding three standard deviations) were picked for independent validation in 9 serial 2-fold dilutions starting at 20 μM. Compounds that produced a concentration dependent effect were validated manually in the 96-well format and cytotoxicity was evaluated. To minimize the detection of false positives, we excluded compounds with structural homology to each luciferase’s natural substrate. To determine the EC50 of candidates we calculated dose response curves using a non-linear least-squares fitting routine available within the GNUPLOT package (accessible online: http://ic50.tk/index.html). We evaluated the effect on splice activity on the RNA level by RT-qPCR of isoforms generated from a titin minigene containing TTN Ex241-43 (corresponding to TTN I-band exon I96-98) in the presence of the potential splice modulators. […]
Total RNA from HEK293.EBNA cells was extracted using RNeasy Micro Kit (Qiagen, Hilden, Germany) according to the manufacturer’s instructions. […] Quantitative RT-PCR was performed using SYBRGreen master mix (Applied Biosystems by Thermo Fisher Scientific Inc., USA) on a 7900 HT RT-cycler (Applied Biosystems by Thermo Fisher Scientific, Inc., USA). […] To quantification gene expression, we used the ΔΔCT method normalized to 18S or to the alternative transcripts generated from the splicing reporter. PSI values were calculated as ratio of unspliced and spliced reporter transcript. […]
(Real-time PCR tracks product formation cycle by cycle.)

The target of data set [5] is Na+/K+ ATPase human erythrocytes. Set-up: method as in PMID 11072868. Particulars: cited from earlier work.
Data set [6] is described as follows: in vitro. To be noted: human. The method, then:
(§4) For transfection 25000 cells/well were seeded on 96-well Nunc F96 MicroWell™ plates (Life Technologies GmbH, Darmstadt, Germany) and transfected with a total of 200 ng of plasmid DNA of which 1 ng was splice reporter plus a corresponding amount of RBM20, RBFOX1 or control plasmid (pcDNA3.1) in a 20x molar excess. To deliver plasmid DNA we used the 40 kDa linear polyethylenimine (Polysciences Europe GmbH, Hirschberg, Germany) at a 1:3 ratio (DNA:PEI40). Cells transfected were at a confluency of 50-60%. Compounds were applied 24 h post-transfection at a final DMSO concentration of 1%. Luciferase activity was measured 60 hours post-transfection using the Dual-Luciferase® Reporter Assay System (Promega GmbH, Mannheim, Germany) on an Infinite® M200 Pro (TECAN, Maennedorf, Switzerland) plate reader. Ratios of firefly to renilla luciferase activity were normalized to the control (pcDNA3.1) without the splicing factor expression construct. Cell viability was measured 60 h post-transfection using a resazurin based staining of metabolically active cells (PrestoBlue®, Life Technologies GmbH, Darmstadt, Germany).
(§5) To evaluate the specificity of the splice effect, we generated an independent splice reporter based on formin-like 3 (FMNL3) and its splice factor RBFOX1 (S5 Fig). […] To exclude an unspecific effect of cell death on RBM20 dependent splicing, we used the steroidal homolog digitonin to induce cell death.

The test system of data set [7] is RBFOX1 dependent splicing of FMNL3. Nature of the data set: cells. On the procedure:
as §4, §5

The subject of data set [8] is RBM20 protein levels. Nature of the data set: RBM20 protein expression by immunoblot in co-transfected HEK293 cells. Format: cell-based, human. Particulars: 0.235 μM digoxin, co-transfected HEK293 cells. On the procedure: For immunodetection, HEK293.EBNA samples were harvested by rinsing them of the cell culture substrate using PBS at 37°C and subsequently used for downstream processing or snap frozen in liquid nitrogen. For protein extraction samples were suspended in RIPA buffer (50 mM Tris pH 8.0, 150 mM NaCl, 1% NP-40, 0.25% sodium deoxycholate, 1.0 mM EDTA; 0.1% SDS) and lysed via sonication with 20 bursts at 70% energy using a VialTweeter (Hielscher Ultrasonics GmbH, Teltow, Germany). Protein concentration was estimated after 20’ precipitation of cell debris at 13,000xg for 20 min at 4°C using BCA assay (Life Technologies GmbH, Darmstadt, Germany [23225]). Samples were kept cool at any time. Lysates were separated by SDS-PAGE [14] and blotted on PVDF membranes. Blotted antigens were probed with mouse anti-c-myc 9E10 ([M5546], Sigma-Aldrich Chemie GmbH, Munich, Germany) tag antibody at 1:2000 and detected using a sheep anti-mouse IgG-HRP (GE Healthcare Europe GmbH, Freiburg, Germany [NA9310V]) conjugate 1:5000 follow by visualization with AceGlow™ (VWR PEQL37) on a FUSION FX7 CCD camera system (Vilber Lourmat Deutschland GmbH, Eberhardzell, Germany).

[9] abbreviates: HEK293 cells, 60 h post-transfection, RBM20/titin reporter transfected, read-out: Viability IC50.

For the compound `C[C@@H]1CC[C@@]2(OC1)O[C@H]1[C@@H](O)[C@H]3[C@@H]4CC[C@H]5C[C@@H](O[C@@H]6O[C@H](CO)[C@H](O[C@@H]7O[C@H](CO)[C@@H](O)[C@H](O[C@@H]8OC[C@@H](O)[C@H](O)[C@H]8O)[C@H]7O[C@@H]7O[C@H](CO)[C@H](O)[C@H](O[C@@H]8O[C@H](CO)[C@@H](O)[C@H](O)[C@H]8O)[C@H]7O)[C@H](O)[C@H]6O)[C@H](O)C[C@]5(C)[C@H]4CC[C@]3(C)[C@H]1[C@@H]2C` [Digitonin], the IC50 turned out to be 2670 ± 212 nM in data set [1] (setting [9]) and 14100 ± 3980 nM in data set [2] (FLuc/RLuc ratio, HEK293 cells, 96-well format, inset table of figure, read-out: Splicing IC50). The “effect on RBM20-mediated titin splicing (in words)” value in data set [2] (DLR assay, HEK293) is on record as “little effect at the highest doses only; also recorded: do not interfere with RBM20 dependent splicing”. In addition, the viability at 36 h in data set [3] is less than 20%. In data set [4] (RT-PCR of minigene, HEK293), the “effect on splicing on the mRNA level (in words)” value is “no effect on the mRNA level”.
Regarding `C[C@H]1O[C@@H](O[C@H]2[C@@H](O)C[C@H](O[C@H]3[C@@H](O)C[C@H](O[C@H]4CC[C@@]5(C)[C@H](CC[C@@H]6[C@@H]5C[C@@H](O)[C@]5(C)[C@@H](C7=CC(=O)OC7)CC[C@]65O)C4)O[C@@H]3C)O[C@@H]2C)C[C@H](O)[C@@H]1O` [Digoxin], the IC50 was 132 nM in data set [1] (HEK293, read-out: IC50 viability (half-maximal lethal dose)); 132 ± 6.6 nM in data set [1] (setting [9]); 0.39 nM in data set [5]; 2600 nM in data set [7] (Homo sapiens, HEK293, read-out: FMNL3/RBFOX1 Splicing IC50, FMNL3 exons 25-26 reporter co-transfected with RBFOX1, HEK293); 153 nM in data set [2] (HEK293, read-out: IC50 Splicing HEK293 cells). The “Viability Hill Coeff.” value in data set [1] (dose response fit, head prints [μM], fits IC50 only) was determined as 2.2906 ± 0.2256. The “Viability Max” value in data set [1] (fit maximum of relative viability, head prints [μM], fits IC50 only) is given as 1.0089 ± 0.0119. The viability at 36 h in data set [6] was less than 30%. The “effect on FMNL3 splicing (in words)” value in data set [7] (concentrations of up to 20x the half-maximal lethal dose) is “not affected”. Moreover, the “RBM20 protein levels reduced to” value in data set [8] is 10%. For the same compound, the “Splicing Hill Coeff.” value in data set [2] was 2.8711 ± 0.6588. Further, the “effect on RBM20-mediated titin splicing (in words)” value in data set [2] is recorded as “efficiently inhibit RBM20 mediated splicing”. In data set [4] (HEK293 transfected with RBM20 and minigene I96-98), the “intron retention / mRNA maturation (in words)” value is on record as “does not cause intron retention”.
